Test system: hESC-derived hippocampal neurons
Assay: Whole cell patch clamp of hippocampal neurons from dispersion culture of hESC-derived hippocampal tissue (sEPSC)
Type: cell-based, human
Details: DNQX 10 μM; voltage held at −60 mV; day 53 after dispersion
Description: By a method similar to that in Example 7-1, continuous hippocampal tissues were subjected to dispersion culture. In this experiment, flat plane culture was performed by seeding on a glass or plastic dish, slide and the like. For culture, a glass or plastic surface was coated with poly-D-Lysine (100 μg/ml) at 37° C. for 3 hr, and Laminin 20 μg/ml/Fibronectin 8 μg/ml overnight at 37° C.
The culture medium used for day 1-2 of dispersion was Neurobasal medium (Gibco/Invitrogen) added with 2% B27 supplement without vitamin A (Gibco/Invitrogen), 2 mM L-glutamine, 1% FBS, 20 ng/ml BDNF, 20 ng/ml NT-3, and 10 μM Y-27632. From day 3 of culture, Neurobasal medium (Gibco/Invitrogen) added with 2% B27 supplement without vitamin A (Gibco/Invitrogen), 2 mM L-glutamine, 10% FBS, BDNF 20 ng/ml, and NT-3 20 ng/ml was used and a half amount of the medium was exchanged every three days. […] Also, the cells obtained by dispersion culture by the same method were electrophysiologically analyzed by the Patch clamp technique. […] For sEPSC, time-course electric current was measured when the voltage was maintained at −60 mV, and the medicament used was DNQX (sigma, D0540) at a final concentration of 10 μM. As the action potential, the membrane potential upon […] stimulation was measured.

## O=[N+]([O-])c1cc2nc(O)c(O)nc2cc1[N+](=O)[O-] [DNQX]
  spontaneous excitatory postsynaptic current (sEPSC): inhibited
